Results from patent publication US7202085B2, “Control of gene expression in eukaryotic cells” (Calgene LLC, priority 1999, dated 2007).
Several values for one entry are separate records, joined by “and”; a condition that tells them apart may be missing. Equal entries are not always repeated. Where two headings read alike, the source gives them in different places.

Legend:
tra box-GUS reporter = tested on: tra box-GUS reporter
Method: Plasmids for transfection were isolated and purified using Megaprep plasmid DNA isolation kit (Qiagen). Carrot protoplasts for transfections were prepared from carrot cell suspension culture and transfected with purified DNA as described (Ulmasov et al., Plant Cell 7:1611–1623, 1995). Briefly, 10 μg of the reporter plasmid and 5 μg of the effector plasmid were incubated with 10^6 protoplasts for five minutes at the room temperature in the presence of polyethylene glycol-calcium solution. After diluting approximately 10-fold with the culture medium, the protoplasts were incubated in the dark for 36 hours either in the presence or absence of the inducer 3-oxohexanoyl-homoserine lactone (OHHL, racemic mixture of the L- and D-isomers, purchased from Sigma Chemical Co., St Louis, Mo.). After incubation, protoplasts were collected by low-speed centrifugation, lysed and the level of GUS activity was measured using fluorometric GUS assay (Jefferson et al., EMBO J. 6:3901–3907, 1987).
Ten μg of the reporter plasmid (pMON53031), and indicated amount of the 35S effector plasmid per reaction was used for transfection in triplicate. […] The “− inducer” and “+ inducer” columns are averages of the GUS activities.
These constructs were tested for background GUS activity and TraR responsiveness in carrot protoplasts.

VP16-TraR [1] = assay: Transient GUS reporter assay in carrot protoplasts with VP16-TraR effector and tra box reporter; assay type: cell-based, Agrobacterium tumefaciens; details: Table 8: TraA8(4X) +TraR
Description: Carrot protoplasts were transfected with the TraA8 (4×)-GUS reporter construct with the 35S-VP16-TraR activator gene and tested for GUS induction by application of wild type AHL and the various AHL analogs described in Example 8.

TraR = target: T1, TraR (Agrobacterium tumefaciens, UniProt P33905); assay: β-galactosidase reporter assay in yeast (TraA8 element, galactose-inducible TraR); assay type: cell-based; details: strain YPH499, c1.5 and 6, 3 copies of TraA8 element; 5 hrs growth on galactose; 50 μM C8-HSL
T1 construct: expressed in transfected cells; host or cells: Saccharomyces cerevisiae (strain 204142; YPH499)
T1 sequence (P33905 whole entry): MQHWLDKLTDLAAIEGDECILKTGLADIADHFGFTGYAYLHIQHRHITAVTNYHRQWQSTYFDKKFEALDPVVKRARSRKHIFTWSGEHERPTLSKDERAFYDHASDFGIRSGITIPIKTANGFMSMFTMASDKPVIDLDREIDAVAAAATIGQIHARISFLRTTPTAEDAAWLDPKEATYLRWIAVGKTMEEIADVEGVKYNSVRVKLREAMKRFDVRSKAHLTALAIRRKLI

VP16-TraR [2] = assay: Transient GUS reporter assay in carrot protoplasts with VP16-TraR effector and tra box reporter; assay type: cell-based, Agrobacterium tumefaciens; parameters: 4, 5, 6 (replicate GUS activities, +inducer): unit not given here
[3] = Table 6 lane 15: TraA7(3X), cl.15 + CAT, 12.5 μM C8-AHL
[4] = Table 6 lane 17: TraA8(3X), cl.4 + CAT, 12.5 μM C8-AHL
[5] = Table 6 lane 19: TraA9(3X), cl.8 + CAT, 12.5 μM C8-AHL
[6] = Table 6 lane 21: TraA10(3X), cl.17 + CAT, 12.5 μM C8-AHL
[7] = Table 6 lane 23: TraA-1(3X), cl.14 + CAT, 12.5 μM C8-AHL
[8] = Table 6 lane 25: min35S-46-GUS, 12.5 μM C8-AHL
[9] = Table 7 lane 1: S2-46GUS, 12.5 μM C8-AHL
[10] = Table 7 lane 2: TraA8(4X), cl.16 + CAT, 12.5 μM C8-AHL
[11] = Table 7 lane 4: TraA8(3X), cl.4(60 μg) + CAT, 12.5 μM C8-AHL
[12] = Table 7 lane 6: TraA8(3X), cl.4(60 μg) +TraM, 12.5 μM C8-AHL
[13] = Table 7 lane 7: TraA8(3X), cl.4(60 μg) +TraS, 12.5 μM C8-AHL
[14] = Table 8 lane 2: TraA8(4X) +CAT, 25 μM C8-HSL
[15] = Table 6 lane 20: TraA9(3X), cl.8 +HA-VP16-TraR, 12.5 μM C8-AHL

Q: What does the source list for `CCCCCC(=O)CC(=O)N[C@H]1CCOC1=O` [C8-HSL, 3-oxooctanoyl-L-homoserine lactone]?
A: 4, 5, 6 (replicate GUS activities, +inducer) (tra box-GUS reporter; [3]): 241.3 and 197.1 and 268.5; +inducer (average GUS activity) (tra box-GUS reporter; [3]): 235.6; 4, 5, 6 (replicate GUS activities, +inducer) (tra box-GUS reporter; [4]): 121.2 and 148.8 and 115.9; +inducer (average GUS activity) (tra box-GUS reporter; [4]): 128.7; 4, 5, 6 (replicate GUS activities, +inducer) (tra box-GUS reporter; [5]): 97.4 and 96.7 and 89.6; +inducer (average GUS activity) (tra box-GUS reporter; [5]): 94.6; 4, 5, 6 (replicate GUS activities, +inducer) (tra box-GUS reporter; [6]): 47.1 and 44.2 and 44.1; +inducer (average GUS activity) (tra box-GUS reporter; [6]): 45.1; 4, 5, 6 (replicate GUS activities, +inducer) (tra box-GUS reporter; [7]): 19.7 and 23.6 and 17.0; +inducer (average GUS activity) (tra box-GUS reporter; [7]): 20.1; 4, 5, 6 (replicate GUS activities, +inducer) (tra box-GUS reporter; [8]): 39.6 and 32.1 and 44.5; +inducer (average GUS activity) (tra box-GUS reporter; [8]): 38.7; 4, 5, 6 (replicate GUS activities, +inducer) (tra box-GUS reporter; [9]): 27.2 and 22.7 and 17.4; +inducer (average GUS activity) (tra box-GUS reporter; [9]): 22.4; 4, 5, 6 (replicate GUS activities, +inducer) (tra box-GUS reporter; [10]): 20.3 and 25.1 and 18.7; +inducer (average GUS activity) (tra box-GUS reporter; [10]): 21.3; 4, 5, 6 (replicate GUS activities, +inducer) (tra box-GUS reporter; [11]): 76.6 and 75.1 and 58.1; +inducer (average GUS activity) (tra box-GUS reporter; [11]): 70.0; 4, 5, 6 (replicate GUS activities, +inducer) (tra box-GUS reporter; [12]): 105.0 and 102.1 and 86.8; +inducer (average GUS activity) (tra box-GUS reporter; [12]): 98.0; 4, 5, 6 (replicate GUS activities, +inducer) (tra box-GUS reporter; [13]): 143.6 and 128.8 and 134.8; +inducer (average GUS activity) (tra box-GUS reporter; [13]): 135.7; 4, 5, 6 (replicate GUS activities, +inducer) (tra box-GUS reporter; [14]): 1101.9 and 791.0 and 1071.3; +inducer (average GUS activity) (tra box-GUS reporter; [14]): 988.1; 1, 2, 3 (replicate GUS activities at the lower concentration) (VP16-TraR [1]; 5 μM): 2820.7 and 3124.7 and 3110.7; 4, 5, 6 (replicate GUS activities at the higher concentration) (VP16-TraR [1]; 12.5 μM): 4386.9 and 4031.2 and 4010.3; 1, 2, 3 (replicate GUS activities at the lower concentration) (VP16-TraR [1]; 25 μM): 8183.1 and 7890.1 and 6855.5; 4, 5, 6 (replicate GUS activities at the higher concentration) (VP16-TraR [1]; 75 μM): 8036.8 and 7647.1 and 8243.2; β-gal activity (chemiluminescent assay) (TraR): strong induction; 4, 5, 6 (replicate GUS activities, +inducer) (VP16-TraR [2]; Table 5 lane 2: tra box (6X), cl.7 +HA-VP16-TraR, 12.5 μM C8-AHL): 933.8 and 1033.2 and 995.1; 4, 5, 6 (replicate GUS activities, +inducer) (VP16-TraR [2]; Table 5 lane 4: traA1(3X), cl.35 +HA-VP16-TraR, 12.5 μM C8-AHL): 1896.4 and 1959.7 and 1968.4; 4, 5, 6 (replicate GUS activities, +inducer) (VP16-TraR [2]; Table 5 lane 6: traA2(3X), cl.43 +HA-VP16-TraR, 12.5 μM C8-AHL): 2198.3 and 2341.9 and 2304.6; 4, 5, 6 (replicate GUS activities, +inducer) (VP16-TraR [2]; Table 5 lane 8: traA3(3X), cl.4 +HA-VP16-TraR, 12.5 μM C8-AHL): 117.3 and 111.1; 4, 5, 6 (replicate GUS activities, +inducer) (VP16-TraR [2]; Table 5 lane 10: traA4(3X), cl.23 +HA-VP16-TraR, 12.5 μM C8-AHL): 142.9 and 112.2 and 113.5; 4, 5, 6 (replicate GUS activities, +inducer) (VP16-TraR [2]; Table 5 lane 12: traA5(3X), cl.2 +HA-VP16-TraR, 12.5 μM C8-AHL): 21.3 and 18.5 and 21.8; 4, 5, 6 (replicate GUS activities, +inducer) (VP16-TraR [2]; Table 5 lane 14: traA6(3X), cl.21 +HA-VP16-TraR, 12.5 μM C8-AHL): 64.8 and 64.7; 4, 5, 6 (replicate GUS activities, +inducer) (VP16-TraR [2]; Table 5 lane 16: traA7(3X), cl.15 +HA-VP16-TraR, 12.5 μM C8-AHL): 237.5 and 226.8 and 240.1; 4, 5, 6 (replicate GUS activities, +inducer) (VP16-TraR [2]; Table 5 lane 18: traA8(3X), cl.4 +HA-VP16-TraR, 12.5 μM C8-AHL): 828.8 and 874.3 and 960.9; 4, 5, 6 (replicate GUS activities, +inducer) (VP16-TraR [2]; Table 5 lane 20: traA9(3X), cl.8 +HA-VP16-TraR, 12.5 μM C8-AHL): 65.4 and 65.3 and 60.5; 4, 5, 6 (replicate GUS activities, +inducer) (VP16-TraR [2]; Table 6 lane 2: Tra box(3X), cl.5 +HA-VP16-TraR, 12.5 μM C8-AHL): 1350.6 and 1542.2 and 1835.6; 4, 5, 6 (replicate GUS activities, +inducer) (VP16-TraR [2]; Table 6 lane 4: TraA1(3X), cl.35 +HA-VP16-TraR, 12.5 μM C8-AHL): 1426.4 and 1490.9 and 1763.9; 4, 5, 6 (replicate GUS activities, +inducer) (VP16-TraR [2]; Table 6 lane 6: TraA2(3X), cl.43 +HA-VP16-TraR, 12.5 μM C8-AHL): 1757.9 and 2255.2 and 2158.0; 4, 5, 6 (replicate GUS activities, +inducer) (VP16-TraR [2]; Table 6 lane 8: TraA3(3X), cl.4 +HA-VP16-TraR, 12.5 μM C8-AHL): 106.3 and 96.1; 4, 5, 6 (replicate GUS activities, +inducer) (VP16-TraR [2]; Table 6 lane 10: TraA4(3X), cl.23 +HA-VP16-TraR, 12.5 μM C8-AHL): 108.1 and 108.3 and 112.6; 4, 5, 6 (replicate GUS activities, +inducer) (VP16-TraR [2]; Table 6 lane 12: TraA5(3X), cl.2 +HA-VP16-TraR, 12.5 μM C8-AHL): 91.6 and 72.7 and 82.6; 4, 5, 6 (replicate GUS activities, +inducer) (VP16-TraR [2]; Table 6 lane 14: TraA6(3X), cl.21 +HA-VP16-TraR, 12.5 μM C8-AHL): 1.4 and 1.9 and 6.3; 4, 5, 6 (replicate GUS activities, +inducer) (VP16-TraR [2]; Table 6 lane 16: TraA7(3X), cl.15 +HA-VP16-TraR, 12.5 μM C8-AHL): 216.9 and 217.5 and 275.9; 4, 5, 6 (replicate GUS activities, +inducer) (VP16-TraR [2]; Table 6 lane 18: TraA8(3X), cl.4 +HA-VP16-TraR, 12.5 μM C8-AHL): 1774.0 and 1839.9 and 1663.3; 4, 5, 6 (replicate GUS activities, +inducer) (VP16-TraR [2]; [15]): 307.2 and 197.9 and 183.9; +inducer (average GUS activity) (VP16-TraR [2]; [15]): 229.7; 4, 5, 6 (replicate GUS activities, +inducer) (VP16-TraR [2]; Table 6 lane 22: TraA10(3X), cl.17 +HA-VP16-TraR, 12.5 μM C8-AHL): 621.1 and 629.5 and 672.7; 4, 5, 6 (replicate GUS activities, +inducer) (VP16-TraR [2]; Table 6 lane 24: TraA-1(3X), cl.14 +HA-VP16-TraR, 12.5 μM C8-AHL): 25.0 and 30.0; 4, 5, 6 (replicate GUS activities, +inducer) (VP16-TraR [2]; Table 7 lane 3: TraA8(4X), cl.16 +HA-VP16-TraR, 12.5 μM C8-AHL): 1190.9 and 991.1 and 863.8; 4, 5, 6 (replicate GUS activities, +inducer) (VP16-TraR [2]; Table 7 lane 5: TraA8(3X), cl.4(60 μg) +TraR, 12.5 μM C8-AHL): 1867.2 and 1559.0 and 1569.7; 4, 5, 6 (replicate GUS activities, +inducer) (VP16-TraR [2]; Table 7 lane 8: TraA8(3X), cl.4(25 μg) + TraR + TraM, 12.5 μM C8-AHL): 13.5 and 9.6 and 12.1; 4, 5, 6 (replicate GUS activities, +inducer) (VP16-TraR [2]; Table 7 lane 9: TraA8(3X), cl.4 (25 μg) + TraR + TraS, 12.5 μM C8-AHL): 279.4 and 224.4 and 241.0; 4, 5, 6 (replicate GUS activities, +inducer) (VP16-TraR [2]; Table 7 lane 10: TraA8(3X), cl.4 (25 μg) + TraR + CAT, 12.5 μM C8-AHL): 698.2 and 680.1 and 908.4; 4, 5, 6 (replicate GUS activities, +inducer) (VP16-TraR [2]; Table 8 lane 3: TraA8(4X) +TraR, 25 μM (row 0/25 μM)): 7034.5 and 8005.8 and 7531.5
